From the supplement of paper PMC10307832

Assays:
Test in all cases: relative viability (nuclei count vs DMSO), 5 days (fraction); higher = more cells survive
Midostaurin + Phenformin = compound: CO[C@@H]1[C@H](N(C)C(=O)c2ccccc2)C[C@H]2O[C@]1(C)n1c3ccccc3c3c4c(c5c6ccccc6n2c5c31)C(=O)NC4 [Midostaurin] + N=C(N)NC(=N)NCCc1ccccc1 [Phenformin] (partner 250 µM)
Outline: (§1)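 Lung cancer cell lines in 1536-well plates got either a single drug or a fixed anchor-drug dose together with five library-drug doses (not always all listed) in √10 steps, by pin tool, on the day after seeding. Nuclei were counted after 5 days, and relative viability is the treated-to-vehicle ratio of nuclei counts. Values are medians of duplicate plates.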

Midostaurin + Navitoclax = compound: CO[C@@H]1[C@H](N(C)C(=O)c2ccccc2)C[C@H]2O[C@]1(C)n1c3ccccc3c3c4c(c5c6ccccc6n2c5c31)C(=O)NC4 [Midostaurin] + CC1(C)CCC(c2ccc(Cl)cc2)=C(CN2CCN(c3ccc(C(=O)NS(=O)(=O)c4ccc(N[C@H](CCN5CCOCC5)CSc5ccccc5)c(S(=O)(=O)C(F)(F)F)c4)cc3)CC2)C1 [Navitoclax] (partner 0.5 µM)
Outline: as §1

[1] = compound: COc1cc(-c2nn([C@H]3CC[C@H](N4CCN(C(C)=O)CC4)CC3)c3ncnc(N)c23)ccc1NC(=O)c1cc2ccccc2n1C + N=C(N)NC(=N)NCCc1ccccc1 [Phenformin] (partner 250 µM)
Outline: as §1

Midostaurin = compound: CO[C@@H]1[C@H](N(C)C(=O)c2ccccc2)C[C@H]2O[C@]1(C)n1c3ccccc3c3c4c(c5c6ccccc6n2c5c31)C(=O)NC4 [Midostaurin]
Outline: (§2)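 In 1536-well plates, lung cancer cell lines rested overnight at 37 °C before five library-drug doses (not always all listed), √10 apart, were pinned onto vehicle-anchored plates. Nuclei were counted with MetaXpress from 4× Hoechst images taken after 5 days without medium change. Viability compares treated-well with vehicle-well nuclei as a median over plates, and plates needed control CV below 25% plus at least one doubling to pass.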

[2] = compound: COc1cc(-c2nn([C@H]3CC[C@H](N4CCN(C(C)=O)CC4)CC3)c3ncnc(N)c23)ccc1NC(=O)c1cc2ccccc2n1C
Outline: as §2

Cell Line | relative viability (Midostaurin + Phenformin; first compound 0.01 µM) | relative viability (Midostaurin + Phenformin; first compound 0.03162 µM) | relative viability (Midostaurin + Phenformin; first compound 0.1 µM) | relative viability (Midostaurin + Phenformin; first compound 0.3162 µM) | relative viability (Midostaurin + Navitoclax; first compound 0.01 µM) | relative viability (Midostaurin + Navitoclax; first compound 0.03162 µM) | relative viability (Midostaurin + Navitoclax; first compound 0.1 µM) | relative viability (Midostaurin + Navitoclax; first compound 0.3162 µM) | relative viability ([1]; first compound 0.0128 µM) | relative viability ([1]; first compound 0.04048 µM) | relative viability ([1]; first compound 0.128 µM) | relative viability ([1]; first compound 1.28 µM) | relative viability (Midostaurin; 0.01 µM) | relative viability (Midostaurin; 0.03162 µM) | relative viability (Midostaurin; 0.1 µM) | relative viability (Midostaurin; 0.3162 µM) | relative viability ([2]; 0.0128 µM) | relative viability ([2]; 0.04048 µM) | relative viability ([2]; 0.128 µM) | relative viability ([2]; 1.28 µM)
BEN | 0.298 | 0.235 | 0.245 | 0.243 | 0.0719 | 0.0568 | 0.0815 | 0.064 | 0.235 | 0.272 | 0.276 | 0.218 | 0.98 | 0.964 | 1.03 | 1.19 | 0.816 | 0.985 | 0.884 | 0.702
EMC-BAC-2 | 0.508 | 0.508 | 0.458 | 0.283 | 1.19 | 1.09 | 0.981 | 1.08 | 0.563 | 0.633 | 0.499 | 0.422 | 0.928 | 0.903 | 0.858 | 0.954 | 1.04 | 1.17 | 0.941 | 0.957
LU99A | 0.872 | 0.977 | 0.899 | 0.729 | 0.819 | 0.788 | 0.576 | 0.792 | 0.938 | 0.59 | 0.85 | 0.882 | 0.881 | 1.14 | 0.887 | 0.939 | 1.03 | 0.84 | 0.998 | 0.982
NCI-H2170 | 0.357 | 0.384 | 0.404 | 0.347 | 0.609 | 0.673 | 0.549 | 0.569 | 0.437 | 0.412 | 0.405 | 0.377 | 0.973 | 0.941 | 1.01 | 1 | 1.07 | 0.996 | 0.991 | 0.821
NCI-H2347 | 0.254 | 0.384 | 0.337 | 0.248 | 0.771 | 0.832 | 0.902 | 0.889 | 0.51 |  | 0.482 | 0.346 | 1.12 | 0.97 | 1.06 | 1.09 | 1.01 | 0.781 | 1.04 | 1.08
NCI-H1993 | 0.476 | 0.498 | 0.477 | 0.508 | 0.964 | 0.901 | 0.972 | 0.992 | 0.539 | 0.509 | 0.486 | 0.488 | 0.948 | 1.01 | 1.17 | 0.802 | 0.966 | 0.737 | 0.834 | 0.87
NCI-H322M | 0.831 | 0.673 | 0.811 | 0.875 | 1.18 | 1.19 | 1.31 | 1.26 | 0.815 | 0.816 | 0.743 | 0.553 | 1 | 0.852 | 1.06 | 1.34 | 0.995 | 0.897 | 0.909 | 0.69
NCI-H838 | 0.704 | 0.551 | 0.397 | 0.274 | 1.23 | 1.04 | 1.02 | 0.354 | 0.694 | 0.53 | 0.509 | 0.388 | 1 | 0.927 | 0.801 | 0.667 | 0.953 | 0.995 | 0.899 | 0.728
HARA | 0.516 | 0.466 | 0.467 | 0.44 | 1.13 | 1.12 | 1.14 | 1.14 | 0.426 | 0.533 | 0.41 | 0.332 | 0.98 | 0.87 | 0.974 | 0.932 | 1.03 | 0.828 | 0.879 | 0.612
NCI-H2087 | 0.457 | 0.474 | 0.445 | 0.399 | 1 | 0.98 | 0.875 | 0.897 | 0.505 |  | 0.529 | 0.462 | 0.972 | 0.938 | 0.985 | 1.26 | 1.09 |  | 1.1 | 1.11
NCI-H1437 | 0.373 | 0.285 | 0.298 | 0.372 | 1.13 | 1.03 | 1.07 | 1.12 | 0.429 | 0.303 | 0.331 | 0.287 | 0.96 | 0.999 | 0.972 | 0.92 | 0.979 | 1.04 | 0.964 | 0.906
NCI-H1792 | 0.508 | 0.303 | 0.428 | 0.309 | 0.613 | 0.591 | 0.601 | 0.647 | 0.263 | 0.288 | 0.369 | 0.309 | 0.954 | 0.697 | 0.929 | 0.777 | 0.975 | 0.878 | 1.02 | 0.951
ChaGo-K-1 | 0.439 | 0.533 | 0.522 | 0.529 | 0.909 | 1.36 | 0.915 | 1.25 | 0.472 | 0.491 | 0.417 | 0.431 | 0.919 | 1.07 | 0.932 | 1.02 | 1.03 | 0.98 | 0.891 | 0.898
COR-L23 | 0.446 | 0.411 | 0.418 | 0.388 | 0.99 | 0.966 | 0.87 | 0.925 | 0.424 | 0.559 | 0.413 | 0.434 | 0.998 | 0.946 | 0.958 | 0.875 | 1.06 | 1.1 | 0.92 | 1.08
COR-L 105 | 0.535 | 0.44 | 0.473 | 0.389 | 0.733 | 0.941 | 0.51 | 0.862 | 0.474 | 0.58 | 0.4 | 0.232 | 0.953 | 0.858 | 0.828 | 0.874 | 0.811 | 1.09 | 0.863 | 0.596
